Tested on: rat BNP promoter activity in neonatal rat ventricular myocytes
Assay: BNP promoter luciferase reporter in neonatal cardiomyocytes with or without endothelin-1
Format: cell-based
Details: neonatal cardiomyocytes, 24 h
Experimental: Five compounds (GATA4–NKX2-5 synergy inhibitors 1, 61, and 65; the synergy activator 2; and the NKX2-5 activity inhibitor 47c) were selected for studies in neonatal cardiomyocytes, which were treated with endothelin-1 (ET-1), a well-established hypertrophic agonist that activates the gene expression of both ANP and BNP (Figure 4). The myocytes were transfected with construct containing −534/+4 proximal region of rat BNP promoter with GATA4 and NKX2-5 binding sites in front of luciferase before exposure to compounds and ET-1, which was added 1 h after the compounds.
Figure 4 Effects of the compounds 1, 2, 47c, 61, and 65 on BNP gene activation in cardiomyocytes. Neonatal cardiomyocytes were transfected with rat BNP luciferase reporter for 24 h. The cells were exposed to compounds and 1 h later to endothelin-1 (ET-1) for 24 h. The results are expressed as +SD (n = 3 or 9 for DMSO groups). ***P < 0.001 vs DMSO; **P < 0.01 vs DMSO; *P < 0.05 vs DMSO (one-way ANOVA followed by Tukey’s HSD or Welch ANOVA followed by Games–Howell); ^###P < 0.001 vs DMSO, no stimulus (independent samples Student’s t test).
The plasmids expressing mouse GATA4 protein, pMT2-GATA4, and empty pMT2 were gifts from D. B. Wilson (Department of Pediatrics, St. Louis Children’s Hospital, St. Louis, MO).[44] The plasmids expressing mouse NKX2-5 protein, pMT2-NKX2-5, have been described earlier.[28] The luciferase reporter plasmid used in GATA4–NKX2-5 transcriptional synergy assay and NKX transcriptional assay, pGL3-3xHA, contains three high affinity binding sites for NKX2-5.[28] The luciferase reporter plasmid used in GATA transcriptional assay, NP-112, contains tandem GATA-sites and minimal promoter of rat brain natriuretic peptide (BNP) gene.[45] The pGL3-BNP luciferase reporter containing −534/+4 bp rat BNP proximal promoter described previously was used in hypertrophy assay.[46]
The neonatal rat ventricular myocytes were isolated from 2- to 3-day-old Wistar rats, as described earlier.[29],[32] Rat pups were acquired from the experimental animal facility of the University of Helsinki with an internal use license (KEK17-012). Animals were housed in standard conditions, and their handling and all procedures were carried out in accordance with University of Helsinki institutional guidelines, which conform to the National Research Council (U.S.) Guide for the Care and Use of Laboratory Animals.[47] The cells were seeded at 50 000 cells/well in Isoplate-96 microplates (PerkinElmer, Turku, Finland) and cultured for 18–20 h with Dulbecco’s modified Eagle medium (DMEM)/F12 culture medium containing 2.5 mM L-glutamine, supplemented with 100 IU/mL penicillin–streptomycin and 10% fetal bovine serum (all from Gibco, Thermo Scientific). Transfections were carried out for 24 h in serum free media (CSFM; DMEM/F12, 2.5 mg/mL bovine serum albumin, 1 μM insulin, 2.5 mM L-glutamine, 32 nM selenium, 2.8 mM sodium pyruvate, 5.64 μg/mL transferrin, 1 nM T3, and 100 IU/mL PS) by using 100 ng of pGL3-BNP luciferase plasmid per well in a 1:3 ratio of DNA/transfection reagent (Fugene 6, Promega). […] After 24 h, the luminescence was measured as above.
Results from cardiomyocyte experiments are expressed as mean + SD from at least three independent experiments. Data were analyzed using IBM SPSS Statistics 24 software. […] Significance between ET-1 and DMSO samples was analyzed with independent samples Student’s t test. […]

effect on BNP promoter activity in cardiomyocytes (in words) | Compound
increased BNP promoter activity | Cc1onc(-c2ccccc2)c1C(=O)N(C1=NC(C)CS1)c1ccc(Cl)cc1 (centres unmarked) [Compound 2]
increased BNP promoter activity | N-[4-(Diethylamino)phenyl]-3-methyl-5-(4-methyl-1,2,3-thiadiazol-5-yl)isoxazole-4-carboxamide [Compound 47c]
